Here are results for two compounds from PMC7492092 (European journal of medicinal chemistry, 2020).

Each structure is given as a SMILES string.

A short description of data set [1]: Microsomal stability assay, human liver microsomes. It counts as in vitro ADME. The following applies: pre-incubation with Cobi vs without.
Data set [2] in a line: Microsomal stability assay, mouse liver microsomes. It counts as in vitro ADME. The following applies: pre-incubation with Cobi vs without. For orientation: Liver microsomes are a subcellular fraction often used to study metabolism.
The next data set in a line: Cytotoxicity assay. The following applies: human, TZM-GFP cells. The class given is cell-based.

`CN(C(=O)[C@H](Cc1ccccc1)NC(=O)Cc1c[nH]c2ccccc12)c1ccc(Br)cc1` [Compd 32, (S)-2-(2-(1H-indol-3-yl)acetamido)-N-(4-bromophenyl)-N-methyl-3-phenylpropanamide]: the “increase of half-life with Cobicistat (HLM)” value in data set [1] is 62 fold. For the same compound, the “increase of half-life with Cobicistat (MLM)” value in data set [2] was found to be 74 fold.

For orientation: CC50 means the concentration at which the toxic effect on the cells reaches its halfway point. Take `CN(C(=O)[C@H](Cc1ccccc1)NC(=O)Cc1c[nH]c2ccccc12)c1ccc(Cl)nc1` [Compd 37, (S)-2-(2-(1H-indol-3-yl)acetamido)-N-(6-chloropyridin-3-yl)-N-methyl-3-phenylpropanamide]: the midpoint of cytotoxicity in the data set “Cytotoxicity assay”, the CC50 at 72 h, lay at 57 ± 0.3 µM.
